# From patent US5541162A, “Glutathione derivatives” (Senju Pharmaceutical Co., Ltd., priority 1990, dated 1996)
# What was measured:
# [1] = system: acetaminophen-induced liver damage; experiment: Effect on acetaminophen-induced liver damage; type: in vivo, rat; settings: for s-GOT, mean ± S.E. / s-GPT, mean ± S.E. / s-GOT percent inhibition (figure in parentheses) / s-GPT percent inhibition (figure in parentheses): male SD rats; for s-GOT, mean ± S.E. / s-GPT, mean ± S.E.: 0.5 mmole/kg orally 1 hour before acetaminophen 300 mg/kg i.p., serum after 24 hours; for s-GOT percent inhibition (figure in parentheses) / s-GPT percent inhibition (figure in parentheses): vs physiological saline control
# Experimental: Method: Male SD rats (body weights about 180 g) purchased from Shizuoka Laboratory Animal Center were used as test animals. The test substance was orally administered (0.5 mmole/kg), and after 1 hour, acetaminophen 300 mg/kg was intraperitoneally administered. After 24 hours, the blood was drawn from the abdominal aorta of each rat and the serum was separated and determined for s-GOT and GPT.
# [2] = system: rat back passive anaphylactic reaction; experiment: Effect on rat back passive anaphylactic reaction; type: in vivo; settings: male Wistar rats; for % Inhibition (passive anaphylactic reaction): 30 mg/kg i.v., vs physiological saline control; for Absorbance (extracted Evans blue dye), mean ± S.E.: 30 mg/kg into caudal vein 1 minute before antigen, dye extracted after 30 minutes, n=5
# Experimental: Method: Male Wistar rats (body weight about 130 g) purchased from Shizuoka Laboratory Animal Center were used as test animals. The back hair of each rat was clipped off and the antiserum was injected intradermally at the back. After 3 days, the test substance 30 mg/kg was injected into the caudal vein (control: physiological saline). One minute later, 1 ml of a 50:50 mixture of 1% egg white albumin and 2% Evans blue in physiological saline was intravenously administered as the antigen to induce a passive anaphylactic reaction. After 30 minutes, the rat was sacrificed, the stained area of the rat back was isolated the dye was extracted with 10 ml of formamide to determine the amount of the dye.
# [3] = system: carrageenin-induced conjunctival edema; experiment: Effect on carrageenin-induced conjunctival edema; type: in vivo, rat; settings: male Wistar rats; for % Inhibition (conjunctival edema): 30 mg/kg i.v., vs physiological saline control; for Conjunctival edema weight (mg ± S.E): test substance 30 mg/5 ml/kg i.v. 1 minute before subconjunctival 1% carrageenin, n=10
# Experimental: Method: Male Wistar rats (body weight about 120 g) purchased from Shizuoka Laboratory Animal Center were used as test animals. Each animal was anesthesized with pentobarbital 6 mg/kg i.p. and a solution of the test substance in physiological saline was intravenously administered (30 mg/5 ml/kg). After 1 minute, 50 μl of a 1% solution of carrageenin in physiological saline was injected subconjunctivally. After 3 minutes, the rat was sacrificed and the carrageenin-induced conjunctival edema was weighed.
Compound,"s-GOT, mean ± S.E. [1]","s-GPT, mean ± S.E. [1]",s-GOT percent inhibition (figure in parentheses) ([1]; 0.5 mmole/kg orally),s-GPT percent inhibition (figure in parentheses) ([1]; 0.5 mmole/kg orally),% Inhibition (passive anaphylactic reaction) [2],"Absorbance (extracted Evans blue dye), mean ± S.E. [2]",% Inhibition (conjunctival edema) [3],Conjunctival edema weight (mg ± S.E) [3],"Efficacy on acetaminophen-induced liver damage (in words) ([1]; 0.5 mmole/kg orally, rats)"
"S-(1,2-Dicarboxyethyl)glutathioneisopropyl ester [R1 = C3 H7, R2 = R3 = OH]",929 ± 500,404 ± 278,78.8%,70.9%,47.7%,0.457 ± 0.055,19.0%,63.9 ± 3.6 mg,
"CC(C)OC(=O)CNC(=O)[C@H](CSC1CC(=O)NC1=O)NC(=O)CC[C@H](N)C(=O)O (stereo partly drawn) [R1 = C3 H7, R2 R3 = NH, S-[(1,2-Dicarboximido)ethyl]glutathione isopropyl ester]",,,,,26.5%,0.642 ± 0.141,21.4%,62.0 ± 1.6 mg,
"N[C@@H](CCC(=O)N[C@@H](CSC1CC(=O)NC1=O)C(=O)NCC(=O)O)C(=O)O (stereo partly drawn) [R1 = H, R2 R3 = NH, S-[(1,2-Dicarboximido)ethyl]glutathione]",1288 ± 316,351 ± 82,54.0%,50.1%,47.4%,0.459 ± 0.104,9.9%,63.9 ± 4.1 mg,
"CCCCOC(=O)CC(CSC[C@H](NC(=O)CC[C@H](N)C(=O)O)C(=O)NCC(=O)OC(C)C)C(=O)OCCCC (stereo partly drawn) [R1 = C3 H7, R2 = R3 = C4 H9, S-(2,3-Dicarbo-n-butoxypropyl)glutathione isopropyl ester]",309 ± 105,86 ± 31,88.4%,70.9%,,,,,significant effect
"CCCCOC(=O)CC(SC[C@H](NC(=O)CC[C@H](N)C(=O)O)C(=O)NCC(=O)OC(C)C)C(=O)OCCCC (stereo partly drawn) [R1 = C3 H7, R2 = R3 = OC4 H9, S-(1,2-Dicarbo-n-butoxyethyl)glutathione isopropyl ester]",178 ± 64,45 ± 11,95.9%,96.8%,43.6%,0.492 ± 0.094,1.9%,77.4 ± 4.0 mg,
S-[1-(or 2)Carboxy-2-(or 1)carbamoylethyl]glutathione,,,,,43.4%,0.494 ± 0.066,9.6%,64.1 ± 4.2 mg,
"NC(=O)CC(SC[C@H](NC(=O)CC[C@H](N)C(=O)O)C(=O)NCC(=O)O)C(N)=O (stereo partly drawn) [R1 = H, R2 = R3 = NH2, S-(1,2-Dicarbamoylethyl)glutathione]",591 ± 155,147 ± 48,78.9%,79.1%,35.3%,0.565 ± 0.162,5.4%,67.1 ± 3.8 mg,
"CCN1C(=O)CC(SC[C@H](NC(=O)CC[C@H](N)C(=O)O)C(=O)NCC(=O)O)C1=O (stereo partly drawn) [R1 = H, R2 R3 = N--C2 H5, S-[N-Ethyl-2,5-dioxopyrrolidin-3-yl]glutathione]",,,,,41.1%,0.514 ± 0.050,9.9%,63.9 ± 3.6 mg,
"CCOC(=O)CC(SC[C@H](NC(=O)CC[C@H](N)C(=O)O)C(=O)NCC(=O)OC(C)C)C(=O)OCC (stereo partly drawn) [R1 = C3 H7, R2 = R3 = OC2 H5, γ-L-Glutamyl-[S-(1,2-dicarbethoxyethyl)]-L-cystinylglycine isopropyl ester]",394 ± 178,111 ± 51,91.0%,92.0%,44.6%,0.484 ± 0.093,23.7%,60.2 ± 1.2 mg,
"CC(C)OC(=O)CNC(=O)[C@H](CSC(CC(N)=O)C(N)=O)NC(=O)CC[C@H](N)C(=O)O (stereo partly drawn) [R1 = C3 H7, R2 = R3 = NH2, S-(1,2-Dicarbamoylethyl)glutathioneisopropyl ester]",1760 ± 911,740 ± 394,59.8%,46.7%,43.6%,0.492 ± 0.083,26.2%,58.2 ± 1.4 mg,
